{"source": "ChEMBL document CHEMBL4414591", "about": "“Isolation and Total Synthesis of Mabuniamide, a Lipopeptide from an Okeania sp. Marine Cyanobacterium” (J Nat Prod, 2019)", "key": {"[1]": {"tested_on": "Plasmodium falciparum", "assay": "Antiprotozoal activity against erythrocytic stage of Plasmodium falciparum 3D7 incubated for 72 hrs by lactate dehydrogenase assay", "assay_type": "functional, organism-based", "settings": "3D7, 72 h"}, "[2]": {"tested_on": "L6", "assay": "Cytotoxicity against rat L6 cells assessed as decrease in cell viability at 10 to 40 uM incubated for 22 hrs by MTT assay", "assay_type": "cell-based", "settings": "l6, 22 h"}, "[3]": {"tested_on": "L6", "assay": "Induction of glucose uptake in rat L6 cells incubated for 22 hrs in presence of glucose by microplate reader assay", "assay_type": "functional, cell-based"}}}
{"smiles": "CCCC(=O)N(C)[C@@H](C)C(=O)N1CCC[C@H]1C(=O)N(C)[C@H](Cc1ccccc1)C(=O)N[C@@H](CC(C)C)C(=O)N(C)[C@@H](C(=O)N[C@H](C(=O)NCC(=O)N(C)[C@@H](Cc1ccccc1)C(=O)N1CCC[C@H]1C(=O)OC)C(C)C)C(C)C", "values": [{"measurement": "IC50", "setting": "[1]", "value": 2800, "unit": "nM"}]}
{"smiles": "CCCC(=O)N(C)[C@@H](C)C(=O)N1CCC[C@H]1C(=O)N(C)[C@@H](Cc1ccccc1)C(=O)N[C@@H](CC(C)C)C(=O)N(C)[C@@H](C(=O)N[C@H](C(=O)NCC(=O)N(C)[C@H](Cc1ccccc1)C(=O)N1CCC[C@H]1C(=O)OC)C(C)C)C(C)C", "note": "(stereo in doubt; form 1) [listing 1 of 2 here]", "values": [{"measurement": "Activity", "setting": "[2]", "value": "Non-Toxic"}, {"measurement": "IC50", "setting": "[1]", "value": 1400, "unit": "nM"}]}
{"smiles": "CCCC(=O)N(C)[C@@H](C)C(=O)N1CCC[C@H]1C(=O)N(C)[C@@H](Cc1ccccc1)C(=O)N[C@@H](CC(C)C)C(=O)N(C)[C@@H](C(=O)N[C@H](C(=O)NCC(=O)N(C)[C@H](Cc1ccccc1)C(=O)N1CCC[C@H]1C(=O)OC)C(C)C)C(C)C", "note": "(stereo in doubt; form 1) [listing 2 of 2 here]", "values": [{"measurement": "Activity", "setting": "[3]", "value": "Dose-dependent effect"}]}
{"smiles": "CCCC(=O)N(C)[C@@H](C)C(=O)N1CCC[C@H]1C(=O)N(C)[C@@H](Cc1ccccc1)C(=O)N[C@@H](CC(C)C)C(=O)N(C)[C@@H](C(=O)N[C@H](C(=O)NCC(=O)N(C)[C@H](Cc1ccccc1)C(=O)N1CCC[C@H]1C(=O)OC)C(C)C)C(C)C", "note": "(stereo in doubt; form 2)", "values": [{"measurement": "Activity", "setting": "[3]", "value": "Dose-dependent effect"}]}
